Measurements as given in PubChem BioAssay (NCI).
Where “and” joins values, the source holds several entries; their conditions need not be identical. Equal values may be shown once.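 Cultured in 96-well plates, cells were exposed to test compound for 48 hours across five concentrations. GI50: concentration for 50% inhibition of growth. TGI denotes the concentration required for complete inhibition of growth.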

How the values were obtained:
Test in all cases: NCI-60 cell line screen, 48 h
CAKI-1 renal = test system: CAKI-1 renal
MOLT-4 leukemia = test system: MOLT-4 leukemia
NCI-H23 lung = test system: NCI-H23 lung
HCT-116 colon = test system: HCT-116 colon
CCRF-CEM leukemia = test system: CCRF-CEM leukemia
SK-MEL-28 melanoma = test system: SK-MEL-28 melanoma
SNB-19 CNS = test system: SNB-19 CNS
A498 renal = test system: A498 renal
MALME-3M melanoma = test system: MALME-3M melanoma
T-47D breast = test system: T-47D breast

Compound	TGI (CAKI-1 renal)	TGI (MOLT-4 leukemia)	TGI (NCI-H23 lung)	TGI (HCT-116 colon)	TGI (CCRF-CEM leukemia)	TGI (SK-MEL-28 melanoma)	TGI (SNB-19 CNS)	TGI (A498 renal)	TGI (MALME-3M melanoma)	TGI (T-47D breast)	GI50 (MALME-3M melanoma)	GI50 (CAKI-1 renal)	GI50 (MOLT-4 leukemia)	GI50 (T-47D breast)	GI50 (NCI-H23 lung)	GI50 (HCT-116 colon)	GI50 (SK-MEL-28 melanoma)	GI50 (SNB-19 CNS)	GI50 (CCRF-CEM leukemia)	GI50 (A498 renal)
CC(=O)O[C@H]1C=CC23OC(=O)[C@]1(C)[C@H]2[C@H](C(=O)O)C12CC(=O)[C@@](CO)(CC[C@H]13)C2	> 100 µM	> 100 µM	> 100 µM	> 100 µM	> 100 µM	> 100 µM	> 100 µM	–	–	–	–	–	–	–	–	–	–	–	–	–
CC(C)(C)OC(=O)N1N=NC2C3OC(CC3=O)C21 (centres undefined)	> 100 µM	> 100 µM	> 100 µM	> 100 µM	> 100 µM	> 100 µM	> 100 µM	> 100 µM	> 100 µM	–	–	–	–	–	–	–	–	–	–	–
NC(=O)N/N=C(/c1nc2ccc([N+](=O)[O-])cc2[nH]c1=O)C(O)c1ccco1 (centres undefined)	> 100 µM	> 100 µM	> 100 µM	> 100 µM	> 100 µM	> 100 µM	> 100 µM	–	> 100 µM	–	–	–	–	–	–	–	–	–	–	–
Cc1cc(O)c(C(c2ccncc2)c2c(O)cc(C)[nH]c2=O)c(=O)[nH]1	> 100 µM	> 100 µM	> 100 µM	> 100 µM	> 100 µM	> 100 µM	> 100 µM	–	> 100 µM	> 100 µM	–	–	–	–	–	–	–	–	–	–
CC(=O)n1ccc2c(Cl)ncnc21	> 100 µM	> 100 µM	> 100 µM	> 100 µM	> 100 µM	> 100 µM	> 100 µM	> 100 µM	–	–	–	–	–	–	–	–	–	–	–	–
O=C(CC(=O)c1ccccc1)c1ccccc1	66 µM	> 100 µM	43.4 µM	> 100 µM	–	> 100 µM	> 100 µM	–	64.1 µM	46.1 µM	23.2 µM	20.1 µM	17.3 µM	14.9 µM	13.6 µM	16.6 µM	31 µM	27 µM	–	–
CC(C)N(C(C)C)P(OCCC#N)OC1CC(n2cnc3c(=O)[nH]cnc32)OC1COC(=O)NCCCCCCNC(=O)OC(C)(C)c1ccc(-c2ccccc2)cc1 (centres undefined)	> 100 µM	> 100 µM	50.5 µM	> 100 µM	43.8 µM	57 µM	57.8 µM	> 100 µM	89.4 µM	–	–	–	–	–	–	–	–	–	–	–
O=C1NC2(C=Cc3c(ccc4ccccc34)O2)Oc2ccccc21 (centres undefined)	–	30.5 µM	92.3 µM	40.8 µM	32.1 µM	> 100 µM	79.1 µM	–	> 100 µM	–	–	–	–	–	–	–	–	–	–	–
Cc1ccc(NC(=O)CCC(=O)C(C#N)c2ccccc2)cc1C (centres undefined)	> 100 µM	> 100 µM	> 100 µM	> 100 µM	> 100 µM	–	> 100 µM	> 100 µM	> 100 µM	–	–	–	–	–	–	–	–	–	–	–
CCOC(=O)NC(=O)c1c[nH]c(=O)[nH]c1=O	> 100 µM	> 100 µM	> 100 µM	> 100 µM	> 100 µM	> 100 µM	> 100 µM	> 100 µM	> 100 µM	–	–	–	–	–	–	–	–	–	–	–
CCOC(=O)/C(C#N)=C/Nc1ccc(-c2nc3ccccc3[nH]2)cc1	74.1 µM	> 100 µM	–	> 100 µM	–	54.1 µM	> 100 µM	–	–	> 100 µM	–	26.6 µM	35.1 µM	33.9 µM	–	> 100 µM	22.5 µM	36.5 µM	–	–
C[n+]1c(N)n(C(=O)OCc2ccccc2)c(=O)c2c1ncn2C(=O)OCc1ccccc1	> 100 µM	> 100 µM	> 100 µM	> 100 µM	> 100 µM	> 100 µM	> 100 µM	> 100 µM	> 100 µM	–	–	–	–	–	–	–	–	–	–	–
O=C(Nc1cccc(C(F)(F)F)c1)c1cc(Br)cc(Br)c1O	6.6 µM	> 10 µM	5.27 µM	5.44 µM	> 10 µM	> 10 µM	> 10 µM	–	–	9.69 µM	–	–	–	–	–	–	–	–	–	–
COC(=O)C1C2CC3C(OC(=O)C31)C2OC(=O)[C@](OC)(c1ccccc1)C(F)(F)F (some centres undefined)	> 100 µM	> 100 µM	> 100 µM	> 100 µM	> 100 µM	> 100 µM	> 100 µM	> 100 µM	> 100 µM	–	–	–	–	–	–	–	–	–	–	–
N#Cc1cccc(OCc2ccccc2COc2cccc(C#N)c2)c1	25.1 µM	> 100 µM	> 100 µM	93.3 µM	–	> 100 µM	> 100 µM	–	38 µM	> 100 µM	4.02 µM	11.1 µM	> 100 µM	55.6 µM	36.7 µM	22 µM	> 100 µM	> 100 µM	–	–
COC(=O)Cc1nc2ccccc2o1	> 100 µM	> 100 µM	> 100 µM	> 100 µM	> 100 µM	> 100 µM	> 100 µM	> 100 µM	> 100 µM	–	–	–	–	–	–	–	–	–	–	–
CN(C)CCNc1nc2ccccc2c2c(=O)c3ccccc3sc12	14.5 µM	6.1 µM	4.86 µM	2.79 µM	4.31 µM	3.98 µM	11.3 µM	–	4.05 µM	22.9 µM	1.86 µM	3.11 µM	2.22 µM	4.91 µM	1.68 µM	1.41 µM	2.08 µM	2.83 µM	1.92 µM	–
COc1cc(C2c3cc4c(cc3[C@@H](Nc3ccc(N)cc3)C3COC(=O)[C@H]23)OCO4)cc(OC)c1O (some centres undefined)	0.903 µM and 5.93 µM	0.8 µM and 0.825 µM	4.85 µM	23 µM	0.953 µM and 5.61 µM	33.9 µM	17.3 µM	6.39 µM	19.7 µM	–	0.849 µM	0.326 µM	0.175 µM and 0.0292 µM	–	0.415 µM	0.973 µM	–	0.555 µM	0.271 µM	0.781 µM
COc1ccc(/C=N/N=C(\[O-])c2ccncc2)cc1F.COc1ccc(/C=N\N=C(/[O-])c2ccncc2)cc1F.[Cu+2]	> 100 µM	> 100 µM	58.2 µM	> 100 µM	68.9 µM	> 100 µM	35.7 µM	–	> 100 µM	–	25.9 µM	38.6 µM	26 µM	–	25.4 µM	27 µM	37.9 µM	17.8 µM	22 µM	–
